In US20240415120A1, “BINARY BIOHERBICIDE COMPRISING PELARGONIC ACID” (YPF TECNOLOGÍA S.A., priority 2023, published 2024):
pIC50: −log10 of the molar value.

Legend:
[1] = test system: Lolium multiflorum; assay: Pre-emergence germination assay in Petri dishes; type: in vivo; details: 168 h, L. multiflorum, after 7 days of exposure, combined concentration of both active ingredients, read-out: Germination IC50 (Confidence limit 95%)
Experimental: (§1) Aqueous extracts containing binary mixtures of formulations: F1 (citral+pelargonic acid) and F2 (thymoquinone+pelargonic acid), in both cases with a 1:1 ratio between the active compounds and with the addition of an emulsifier (soy lecithin at 35% w/w, YPF Agro, 2022) at 0.2% v/v, were tested in Petri dishes following the methodology disclosed in U.S. Pat. No. 11,083,197, with some modifications. […] The extracts were placed onto 9-cm diameter paper disks in Petri dishes. Then, ten seeds of each species were placed onto paper disks. Subsequently, the dishes were closed under the following experimental conditions: room temperature, 26.0±1.8° C.; relative humidity, 50±9.7%; and photoperiod, 12:12. The seeds were considered germinated if their roots were longer than 1 mm. Aqueous extracts without the addition of the bioactive formulation were used as negative control, whereas atrazine was used as positive control. The assays were performed in triplicates for each concentration.
(§2) The IC50 were obtained using the software POLO PLUS (LeOra Software Company).
(§3) An aqueous extract comprising the emulsifier used in Example 1 at 0.2% w/w was prepared and seeds of different species were exposed to the extract following a methodology as the one used in Example 1. Pure water was used as a negative control.

[2] = test system: Amaranthus hybridus; assay: Pre-emergence germination assay in Petri dishes; type: in vivo; details: 168 h, A. hybridus, after 7 days of exposure, combined concentration of both active ingredients, read-out: Germination IC50 (Confidence limit 95%)
Experimental: as §1, §2, §3

[3] = test system: Solanum lycopersicum; assay: Pre-emergence germination assay in Petri dishes; type: in vivo; details: 168 h, S. lycopersicum, after 7 days of exposure, combined concentration of both active ingredients, read-out: Germination IC50 (Confidence limit 95%)
Experimental: as §1, §2, §3

[4] = test system: seedlings of A. hybridus; assay: Early post-emergence damage to photosystem II (Fv/Fm fluorometry); type: in vivo, Amaranthus hybridus; details: 5 mM
Experimental: • Plant material and culturing conditions Seeds of Amaranthus hybridus were sown on plastic boxes of 15.5×11×4 cm with moist absorbing paper (25 seeds per box). The boxes were placed in a culture chamber at 22° C. and 50 μmol photons m^−2 s^−1 with a photoperiod of 16 hours. […] The application volume for each treatment was 10 ml per box on the absorbing paper. After 7 days post-application, to avoid possible chlorosis symptoms due to a lack of nutrients, 5 ml of nutritive solution were added to each box, with the following formulation: 5.0 mM Ca(NO3)2, 5.0 mM KNO3, 2.0 mM MgSO4, 1.0 mM KH2PO4, 20.0 μM FeNaEDTA, 5.0 μM H3BO3, 0.9 μM MnCl2, 0.8 μM ZnCl2, 0.3 μM CuSO4 y 0.01 μM Na2MoO4, pH 5.5-6.5. The experiments were finished 12 days post-application.
The tested formulations were F1 and F2, both at 5 mM. […]
The objective was to assess the early post-emergence effect of the tested formulations on seedlings of A. hybridus of 7 days post-sowing. At 1, 2, 5, 7 and 12 days post-application the fluorometry measurements (Fv/Fm) were carried out to ascertain the damage to photosystem II, and the plants with bleaching or chlorosis symptoms were counted. […]
For the experiments, three boxes per treatment were used: both experiments had 5 treatments. Each experiment was repeated 3 times (assays 1, 2 and 3), and each assay was analyzed separately. […]

[5] = test system: Pseudomonas monteilii; assay: Effect on growth-promoting bacteria in liquid culture; type: cell-based; details: C + N 5 mM combined; F3, F4, F5 0.5% v/v; atrazine 5 mM; LB medium, 32° C.; Gompertz model
Experimental: To evaluate the effect of the compositions prepared in Example 6 on growth-promoting bacteria, a model strain of Pseudomonas monteilii was used. The microorganism was inoculated in liquid LB medium (initial optical density at 600 nm=0.1), and incubated in Erlenmeyer flasks at 32° C., 180 rpm. The effect of the active compounds (citral (C)+pelargonic acid (N), at a combined concentration of 5 mM), F3, F4 and F5 (all three at 0.5% v/v) and atrazine (5 mM) was assessed by adding each treatment to the culture medium at the moment of inoculation. The positive growth control was performed without adding any compound. Liquid samples were taken during the growth, and the biomass of the cultures was evaluated using the drop plate method described by Herigstad et al. (2001). Three repetitions were carried out in different times and the results were analyzed with the software Statistica (StatSoft, 2007) to adjust them to the Gompertz model, and thus calculate the growth parameters.

SMILES: CCNc1nc(Cl)nc(NC(C)C)n1 [Atrazine, atrazine]
- pIC50 [1]: 1.41
- pIC50 [2]: 1.39
- pIC50 [3]: 1.43
- Course of Fv/Fm values ([4]; day 1 to 12 days post-application): gradual fall in the Fv/Fm values from day 1 until reaching minimum or non-measurable values at 12 days
- Effects on photosystem II in comparison to treatments F1 and F2 ([4]; every assay): lower effects
- Duplication time [5]: 22.03 min
- Lag pase length [5]: 1.3 h
- maximum growth rate μmax [5]: 1.89 h⁻¹
